Data reported in publication PMC4186413, “Identification of metabolic pathways and enzyme systems involved in the in vitro human hepatic metabolism of dronedarone, a potent new oral antiarrhythmic drug” (Pharmacology Research & Perspectives, 2014).

What was measured:
[1] = parameters: method as in Touboul et al. [2003]; Wadhani et al. [2006]; details: 400-mg twice daily, ref Touboul et al. [2003]; Wadhani et al. [2006]; cited from earlier work
[2] = cited from earlier work
[3] = target: T1, MAO-A (Homo sapiens, UniProt P21397); assay: Oxidation by recombinant human MAO-A; format: in vitro ADME; details: 1 mg/mL, 5 μmol/L, 30 min, no cofactor
T1 construct: purchased BD Gentest (Woburn, MA); host or cells: baculovirus-infected insect cells
T1 sequence (P21397 whole entry): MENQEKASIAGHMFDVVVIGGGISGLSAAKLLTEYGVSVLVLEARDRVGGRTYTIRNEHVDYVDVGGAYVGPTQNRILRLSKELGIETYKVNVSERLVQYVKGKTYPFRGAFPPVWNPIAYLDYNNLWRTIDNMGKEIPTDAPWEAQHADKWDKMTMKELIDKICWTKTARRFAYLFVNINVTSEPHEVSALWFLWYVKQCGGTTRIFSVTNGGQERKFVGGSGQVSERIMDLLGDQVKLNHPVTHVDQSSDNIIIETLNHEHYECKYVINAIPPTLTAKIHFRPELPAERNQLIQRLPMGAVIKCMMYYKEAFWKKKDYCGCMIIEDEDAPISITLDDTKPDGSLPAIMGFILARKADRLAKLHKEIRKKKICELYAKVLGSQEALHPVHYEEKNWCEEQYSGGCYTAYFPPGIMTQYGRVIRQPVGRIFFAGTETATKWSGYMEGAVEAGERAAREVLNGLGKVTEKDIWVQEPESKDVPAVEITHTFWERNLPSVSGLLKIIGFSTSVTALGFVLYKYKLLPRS
Excerpt: Recombinant human CYPs (Supersomes™; BD Gentes, Woburn, MA: CYP1A1, CYP1A2, CYP2A6, CYP2B6, CYP2C8, CYP2C9, CYP2C18, CYP2C19, CYP2D6, CYP2E1, CYP3A4 and CYP3A5), FMOs (Supersomes™: FMO1, FMO3, FMO5), MAOs (Supersomes™: MAO-A and MAO-B), and UGTs (Supersomes™: UGT1A1, UGT1A3, UGT1A4, UGT1A6, UGT1A7, UGT1A8, UGT1A9, UGT1A10, UGT2B4, UGT2B7, UGT2B15, and UGT2B17) expressed in baculovirus-infected insect cells and control microsomes from insect cells infected with wild-type baculovirus were all obtained from BD Gentest (Woburn, MA). […]
In human liver microsomes and recombinant isoforms, the percentage of metabolism was determined on the basis of unchanged drug disappearance, using the following equation [drawing 1] where UDt = 30 min represents the unchanged drug peak area after a 30-min incubation period and UDt = 0, the unchanged drug peak area at t = 0. […]
Figure 5 Contribution of individual CYPs, FMOs and MAOs to the oxidation of dronedarone and its metabolites. […] Unchanged drugs were quantified by LC/MS-MS relative to the synthetic references as described in Materials and Methods. Data are expressed as the percentage of oxidation.

Compound	Incidence of any QTc interval >500 msec [1]	PR interval increase [1]	Increase of dronedarone exposure by ketoconazole ([2]; after single dose, clinical findings)	Increase of steady state exposure of metoprolol ([2]; dronedarone 400–800 mg twice a day, metoprolol 200 mg daily, CYP2D6 extensive metabolizers, ref Damy et al. [2004])	Increase of steady state concentrations of simvastatin and its active metabolite ([2]; healthy volunteers, dronedarone 400 mg BID)	Dose excreted in feces mainly as metabolites ([2]; human, in vivo)	Eliminated by first-pass metabolism in the liver by CYP3A4 enzymes ([2]; human, in vivo)	Increase of trough sirolimus concentrations ([2]; kidney-transplant patient, 3 day-treatment with twice daily 400 mg dronedarone, ref Tichy et al. [2010])	Lowering of dronedarone exposure by rifampicin ([2]; rifampicin 600 mg once daily for 7 days)	Percentage of oxidation (unchanged drug disappearance) by MAO-A [3]
CCCCc1oc2ccc(NS(C)(=O)=O)cc2c1C(=O)c1ccc(OCCCN(CCCC)CCCC)cc1.Cl [Dronedarone, N-(2-Butyl-3-(4-(3-(dibutylamino)propoxy)benzoyl)-5-benzofuranyl)methanesulfonamide, hydrochloride]	7.7%	13.4 ms	25 fold	1.6- to 2.3 folds	2- to 4 fold	84%	> 84%	up to threefold	5 fold	
CCCCNCCCOc1ccc(C(=O)c2c(CCCC)oc3ccc(NS(C)(=O)=O)cc23)cc1 [N-debutyl-dronedarone]										98%
